SMILES strings stand for the structures. Like-named read-outs stand apart in the source and are kept apart here. Square brackets hold non-standard residues; d marks the D form. Peptide text beside a SMILES is read from it. * marks the point of attachment. Cyclohexanoyl(1S,3S-3-NH2) = N[C@H]1CCC[C@H](C(=O)*)C1; Trp(5-OH) = N[C@@H](Cc1c[nH]c2ccc(O)cc12)C(=O)O; NH(4-morpholinophenyl) = c1cc(N2CCOCC2)ccc1N*; Bip = N[C@@H](Cc1ccc(-c2ccccc2)cc1)C(=O)O; hArg = N=C(N)NCCCC[C@H](N)C(=O)O

For data set [1], the system named is mouse motor neurons co-cultured with iAstrocytes derived from sALS patients. The experiment in a line: Co-culture of sALS patient derived iAstrocytes and motor neurons (motor neuron survival). The data set is classed as cell-based. The following applies: 10 μM. The text has this: EphA4 has been directly implicated in the progression of ALS in mice models and in human genetic studies. While the mechanisms for onset and progression of ALS remain largely undetermined, astrocytes have been implicated as significant contributors to motor neuron death in both in familial ALS (fALS), that is driven by inactivating mutations within the superoxide dismutase 1 (SOD1) gene and that account for less than 2% of all ALS cases, (Di Giorgio et al., Nat Neurosci, 10 (5): 608-614, (2007); Nagai et al., Nat Neurosci, 10 (5): 615-622, (2007); Yamanaka et al., Nat Neurosci, 11 (3): 251-253, (2008)) and the more common sporadic form of ALS (sALS). […] Recently, it was shown that astrocytes derived from both patient groups are similarly toxic to motor neurons (Haidet-Phillips et al., Nat Biotechnol, 29 (9): 824-828, (2011)).
Induced Astrocytes were generated by seeding a low quantity of NPCs into astrocyte medium (DMEM media containing 10% FBS and 0.2% N2) for five days. Following differentiation, iAstrocytes were lifted and seeded into a 96 well (10,000 cells per well).
Cells are sorted through a 100 micron tip with sheath pressure of 27. GFP+ motor neurons were seeded in a 96 well plate (10,000 cells per well). Co-cultures were imaged with InCell for up to three days. Motor neurons with neurite outgrowth of greater than 50 um were counted as alive.

In a further data set the target is T1, EphA4-LBD and ephrinA5 (Homo sapiens, UniProt P54764, C204A).
T1 construct: His tag (N); made in house; host or cells: E. coli Rosetta-Gami B(DE3) for EphA4-LBD; ephrin-A5 purchased from Sino Biological US Inc (catalogue number not given)
Put plainly: ephrinA5 displacement by 2D [13C,1H] correlation NMR. The following applies: ^1H] correlation spectra. The data set is classed as binding. The protocol: NMR spectra were acquired on Bruker Avance III 700 MHz spectrometer equipped with a TCI cryoprobe. All NMR data were processed and analyzed using TOPSPIN 3.6.1 (Bruker, Billerica, Mass., USA). 2D-[^13C,^1H]-HSQC experiments were acquired with 20 μM proteins using 8 scans with 2,048 and 256 complex data points in the ^1H and […] dimensions, respectively, at 298 K. For the 150D4 NMR titrations in FIG. 8 2D-[^13C,^1H]-HSQC experiments were acquired using 16 scans per increment, and for ephrinA5 binding studies (FIG. 8) with 10 μM protein, using 32 scans per increment.

For data set [2], the target named is T2, recombinant EphA4 ligand binding domain (Homo sapiens, UniProt P54764, C204A).
T2 construct: His tag (N); made in house; host or cells: E. coli Rosetta-Gami B(DE3), pET15b
The experiment in a line: Isothermal titration calorimetry (ITC) against EphA4-LBD. As to conditions: ITC, EphA4-LBD. How it is done:
Peptides were synthesized by using standard solid-phase synthesis protocol, using the BAL resin as anchoring for the C-terminal amines. Isothermal Titration Calorimetry (ITC) measurements were performed in a reverse fashion by titrating the protein into the ligand solution. Solution nuclear magnetic resonance (NMR) experiments were conducted on a 700 MHz Bruker Avance spectrometer equipped with a TCI cryoprobe. Each protein sample was dissolved into an NMR tube at a final concentration of 20 μM (1% DMSO-d6) in the presence of 20 μM of each compound.
The fragments were transformed into Rosetta-Gami B(DE3) competent cells and grown in LB medium at 37° C. with 100 μg/mL of ampicillin until reaching an OD600 of 0.6-0.7 followed by induction with 0.4 mM IPTG overnight at 20° C. Bacteria were then collected by centrifugation and lysed by sonication at 4° C. […] EphA4 LBD with ^13C^ε/^1H^ε-Met labeled was expressed like previously described but adding a suspension of 100 mg of ^13C^ε/^1H^ε-Methionine in 1 mL of DMSO per liter of LB medium, 10 minutes before induction. […] Transformation, expression, and purification of EphA3-LBD chimera was performed as described above for EphA4-LBD.
Isothermal titration calorimetry (ITC) measurements were performed using the Affinity ITC Autosampler from TA Instruments (New Castle, Del.). The titrations were performed in a reverse fashion by titrating the protein into the ligand solution. […] The syringe was filled with a 100 μM solution of EphA4-LBD, EphA3-LBD Chimera, or EphA2-LBD, and 20 injections of 2.5 μL each were performed into the cell containing a 20 μM solution of the compounds. The injections were made at 200 s or 400 s intervals with a stirring speed of 75 rpm. All the solutions were kept in the autosampler at 4° C. The analysis of the thermodynamics signatures and for dissociation constant determination was performed by the NanoAnalyze software (TA Instruments, New Castle, Del.) and subsequently exported into Microsoft Excel.
Background: ITC needs no label: the signal is the heat of the interaction.

The target of the next data set is EphA4 (Mus musculus, UniProt Q03137). Put plainly: EphA4 phosphorylation in primary spinal cord motor neurons (IP/western blot). The following applies: 1 μM or 10 μM, 30 min. Background: A western blot detects proteins with antibodies after separation by electrophoresis.
Data set [3] can be described thus: In vivo pharmacokinetics and brain exposure. The following applies: mice; for tissue level at time at 0.5 h / level at 0.5 h / tissue level at time at 24 h / level at 24 h / level at 1 h: mouse; for tissue level at time at 0.5 h / tissue level at time at 24 h: read-out: Amount of compound per mg of wet brain tissue.
Another data set can be described thus: Aqueous solubility. The data set is classed as physicochemical.
Data set [4] has as its system primary spinal cord motor neurons. The experiment in a line: Growth cone collapse in primary spinal cord motor neurons. The following applies: 1 μM and 10 μM 150D4, 2 DIV neurons.

T2 sequence (P54764 29-209 C204A): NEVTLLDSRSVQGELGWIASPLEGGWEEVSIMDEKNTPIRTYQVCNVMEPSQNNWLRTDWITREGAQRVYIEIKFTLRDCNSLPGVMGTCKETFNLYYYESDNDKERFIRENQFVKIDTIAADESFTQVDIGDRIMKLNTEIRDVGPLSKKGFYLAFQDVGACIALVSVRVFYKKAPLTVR
T1 sequence (P54764 29-209 C204A): as above
Sequence of EphA4 (Q03137 20-986): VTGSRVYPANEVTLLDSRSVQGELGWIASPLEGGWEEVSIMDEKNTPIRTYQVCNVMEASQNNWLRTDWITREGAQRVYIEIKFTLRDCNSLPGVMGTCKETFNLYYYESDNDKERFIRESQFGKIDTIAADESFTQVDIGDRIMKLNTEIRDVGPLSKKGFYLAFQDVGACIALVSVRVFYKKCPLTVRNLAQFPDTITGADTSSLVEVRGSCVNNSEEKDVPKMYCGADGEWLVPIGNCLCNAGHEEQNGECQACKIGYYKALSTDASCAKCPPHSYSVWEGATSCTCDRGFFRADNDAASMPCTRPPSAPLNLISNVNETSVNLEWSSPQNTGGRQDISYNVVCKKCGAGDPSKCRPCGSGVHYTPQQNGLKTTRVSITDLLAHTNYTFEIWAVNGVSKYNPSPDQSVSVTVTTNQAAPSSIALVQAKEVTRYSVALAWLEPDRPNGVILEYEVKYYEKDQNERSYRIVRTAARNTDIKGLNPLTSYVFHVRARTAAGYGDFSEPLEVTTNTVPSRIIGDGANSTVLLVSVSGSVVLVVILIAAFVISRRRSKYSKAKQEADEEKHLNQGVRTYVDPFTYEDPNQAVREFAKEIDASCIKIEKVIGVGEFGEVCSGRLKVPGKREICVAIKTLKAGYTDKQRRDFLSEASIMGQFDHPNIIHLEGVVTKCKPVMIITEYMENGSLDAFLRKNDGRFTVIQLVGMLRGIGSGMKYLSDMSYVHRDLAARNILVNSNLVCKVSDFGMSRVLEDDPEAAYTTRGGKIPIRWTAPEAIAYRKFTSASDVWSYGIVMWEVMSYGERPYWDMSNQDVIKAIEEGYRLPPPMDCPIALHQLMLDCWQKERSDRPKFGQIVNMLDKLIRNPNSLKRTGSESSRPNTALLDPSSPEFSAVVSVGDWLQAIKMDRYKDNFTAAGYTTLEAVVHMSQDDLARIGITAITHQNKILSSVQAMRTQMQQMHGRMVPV

One may read the Kd as the equilibrium constant for the complex coming apart. By Aqueous Solubility is commonly meant how much of the substance goes into solution per volume. Low readings indicate a poorly soluble substance, high ones a readily soluble substance. For the molecule `N=C(N)NCCCC[C@H](NC(=O)[C@H](Cc1ccc(-c2ccccc2)cc1)NC(=O)[C@H](Cc1c[nH]c2ccc(O)cc12)NC(=O)[C@H]1CCC[C@H](N)C1)C(=O)NCC(=O)Nc1ccc(N2CCOCC2)cc1` [Compound 8, (1S,3S)—N—((S)-1-(((S)-3-([1,1′-biphenyl]-4-yl)-1-(((S)-6-guanidino-1-((2-((4-morpholinophenyl)amino)-2-oxoethyl)amino)-1-oxohexan-2-yl)amino)-1-oxopropan-2-yl)amino)-3-(5-hydroxy-1H-indol-3-yl)-1-oxopropan-2-yl)-3-aminocyclohexane-1-carboxamide] ({Cyclohexanoyl(1S,3S-3-NH2)}-[Trp(5-OH)][Bip][hArg]G-{NH(4-morpholinophenyl)}), the “protection of motor neurons from sALS astrocytes-induced death” value in data set [1] is on record as “able to protect mouse motor neurons from iAstrocytes derived from sALS patients”. Besides, on EphA4-LBD and ephrinA5, the “displacement of ephrinA5 binding to EphA4-LBD” value is “efficiently displaces the binding of ephrinA5”. The “-TΔS” value in data set [2] was -0.88 kcal/mol. The “AH” value in data set [2] is -8.49 kcal/mol. In addition, the Kd in data set [2] (read-out: Kd (nM)- ITC) amounted to 113 nM. Further, on EphA4, the “EphA4 receptor phosphorylation (pEphA4/total EphA4)” value was “more significantly active than others”. Also, the “Total extracted brain compound” value was found to be 205.6 ng in data set [3] (10 mg/kg IV, 30 min); 60 ng in data set [3] (10 mg/kg IV, 24 hr); 185 ng in data set [3] (50 mg/Kg IP, 30 min); 34.7 ng in data set [3] (50 mg/Kg IP, 24 hr). The tissue level at time at 0.5 h in data set [3] (brain, 10 mg/kg IV, 30 min) was 4730 ng/g; in data set [3] (brain, 50 mg/Kg IP, 30 min), 4600 ng/g. Besides, the level at 0.5 h in data set [3] (brain, 10 mg/kg IV, 30 min, read-out: Brain concentration) is 189 ng/mL; in data set [3] (plasma, 10 mg/kg IV, 30 min, read-out: Plasma drug concentration), 484 ng/mL. For the same molecule, the tissue level at time at 24 h in data set [3] (brain, 10 mg/kg IV, 24 hr) is 1360 ng/g; in data set [3] (brain, 50 mg/Kg IP, 24 hr), 1100 ng/g. Besides, the level at 24 h came to 54 ng/mL in data set [3] (brain, 10 mg/kg IV, 24 hr, read-out: Brain concentration); 45.5 ng/mL in data set [3] (brain, 50 mg/Kg IP, 24 hr, read-out: Brain concentration); 14.2 ng/mL in data set [3] (plasma, 10 mg/kg IV, 24 hr, read-out: Plasma drug concentration); 45 ng/mL in data set [3] (plasma, 50 mg/Kg IP, 24 hr, read-out: Plasma drug concentration). Besides, the level at 1 h in data set [3] (brain, 50 mg/Kg IP, read-out: Brain concentration) turned out to be 184 ng/mL; in data set [3] (plasma, 50 mg/Kg IP, read-out: Plasma drug concentration) it was 7740 ng/mL. For the same molecule, the “Aqueous Solubility” value in the data set “Aqueous solubility” was more than 50 mM. The growth cone collapse entry in data set [4] was “effective in inducing growth cone collapse”.

The values are drawn from patent US20230203096A1, “EPHA4 TARGETING COMPOUNDS AND METHODS OF USE THEREOF” (priority 2020, published 2023).
